# According to patent publication US10294202B2, “Pyrrolidinones as herbicides” (FMC Corporation, priority 2013, dated 2019):
# What was measured:
# barnyardgrass [1] = experiment: Test B flooded paddy test; assay type: in vivo, Echinochloa crus-galli; settings: Flood, scale of 0 to 100 where 0 is no effect and 100 is complete control
# Outline: (§1)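 First, plants reach the 2-leaf stage; next, pots are flooded to 3 cm and compound is delivered into the water; finally, after 13 to 15 greenhouse days at constant depth, injury is graded visually from 0 to 100 against controls.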
# morningglory = experiment: Test A pre-/postemergence herbicide test; assay type: in vivo, Ipomoea spp.
# Outline: (§2)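 Greenhouse pot test with pre- and postemergence application of surfactant-containing solvent formulations. Postemergence plants were 2–10 cm, one- to two-leaf stage. Response scored visually after ~10 days, 0 (no effect) to 100 (complete control).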
# pigweed = experiment: Test A pre-/postemergence herbicide test; assay type: in vivo, Amaranthus retroflexus
# Outline: as §2
# barnyardgrass [2] = experiment: Test A pre-/postemergence herbicide test; assay type: in vivo, Echinochloa crus-galli
# Outline: as §2
# ducksalad = experiment: Test B flooded paddy test; assay type: in vivo, Heteranthera limosa; settings: Flood, scale of 0 to 100 where 0 is no effect and 100 is complete control
# Outline: as §1
# crabgrass, large = experiment: Test A pre-/postemergence herbicide test; assay type: in vivo, Digitaria sanguinalis
# Outline: as §2
# rice = experiment: Test B flooded paddy test; assay type: in vivo, Oryza sativa; settings: Flood, scale of 0 to 100 where 0 is no effect and 100 is complete control
# Outline: as §1
# giant foxtail = experiment: Test A pre-/postemergence herbicide test; assay type: in vivo, Setaria faberii
# Outline: as §2
# sedge, umbrella = experiment: Test B flooded paddy test; assay type: in vivo, Cyperus difformis; settings: Flood, scale of 0 to 100 where 0 is no effect and 100 is complete control
# Outline: as §1
# velvetleaf = experiment: Test A pre-/postemergence herbicide test; assay type: in vivo, Abutilon theophrasti
# Outline: as §2
# wheat = experiment: Test A pre-/postemergence herbicide test; assay type: in vivo, Triticum aestivum
# Outline: as §2
# corn = experiment: Test A pre-/postemergence herbicide test; assay type: in vivo, Zea mays
# Outline: as §2
# [3] = Postemergence, 125 g ai/ha, 0 to 100 scale, 0 no effect, 100 complete control
# [4] = Postemergence, 500 g ai/ha, 0 to 100 scale (0 no effect, 100 complete control)
# [5] = Preemergence, 125 g ai/ha, visual rating on 0 to 100 scale (0 no effect, 100 complete control)
# [6] = preemergence, 500 g ai/ha, 0 to 100 scale
# [7] = preemergence, 500 g ai/ha, 0 to 100 scale (0 no effect, 100 complete control)
# [8] = Postemergence, 1000 g ai/ha, 0 to 100 scale (0 no effect, 100 complete control)
# [9] = Preemergence, 1000 g ai/ha, visual rating on 0 to 100 scale (0 no effect, 100 complete control), approx. 10 days
# [10] = Postemergence, 125 g ai/ha, visual rating on 0 to 100 scale (0 no effect, 100 complete control), approx. 10 days
# [11] = Preemergence, 125 g ai/ha, 0 to 100 scale where 0 is no effect and 100 is complete control
# [12] = preemergence, 500 g ai/ha, 0 to 100 scale, 0 is no effect and 100 is complete control
# [13] = Postemergence, 125 g ai/ha, 0 to 100 scale, 0 is no effect, 100 is complete control
structure (smiles),measurement,setting,value
Cc1cccc(C2CNC(=O)C2C(=O)Nc2ccccc2F)c1 (racemic) [Compound 38],"Plant response rating, Barnyardgrass",barnyardgrass [1]; 250 g ai/ha,0
same,"Plant response rating, Morningglory",morningglory; [3],0
same,"Plant response rating, Morningglory",morningglory; [4],0
same,Morningglory plant response rating,morningglory; [5],0
same,"Plant response rating, Morningglory",morningglory; [6],0
same,"Plant response rating, Pigweed",pigweed; [3],0
same,"Plant response rating, Pigweed",pigweed; [4],0
same,Pigweed plant response rating,pigweed; [5],0
same,"Plant response rating, Pigweed",pigweed; [6],0
same,"Plant response rating, Barnyardgrass",barnyardgrass [2]; [3],0
same,"Plant response rating, Barnyardgrass",barnyardgrass [2]; [4],30
same,Barnyardgrass plant response rating,barnyardgrass [2]; [5],0
same,"Plant response rating, Barnyardgrass",barnyardgrass [2]; [7],80
same,"Plant response rating, Ducksalad",ducksalad; 250 g ai/ha,0
same,"Plant response rating, Crabgrass, Large","crabgrass, large; [3]",0
same,"Plant response rating, Crabgrass, Large","crabgrass, large; [4]",50
same,"Crabgrass, Large plant response rating","crabgrass, large; [5]",70
same,"Plant response rating, Crabgrass, Large","crabgrass, large; [6]",80
same,"Plant response rating, Rice",rice; 250 g ai/ha,0
same,"Plant response rating, Foxtail, Giant",giant foxtail; [3],0
same,"Plant response rating, Foxtail, Giant",giant foxtail; [4],20
same,"Foxtail, Giant plant response rating",giant foxtail; [5],0
same,"Plant response rating, Foxtail, Giant",giant foxtail; [6],30
same,"Plant response rating, Sedge, Umbrella","sedge, umbrella; 250 g ai/ha",0
same,"Plant response rating, Velvetleaf",velvetleaf; [3],0
same,"Plant response rating, Velvetleaf",velvetleaf; [4],0
same,Velvetleaf plant response rating,velvetleaf; [5],0
same,"Plant response rating, Velvetleaf",velvetleaf; [6],0
same,"Plant response rating, Wheat",wheat; [3],0
same,"Plant response rating, Wheat",wheat; [4],0
same,Wheat plant response rating,wheat; [5],0
same,"Plant response rating, Wheat",wheat; [6],0
same,"Plant response rating, Corn",corn; [3],0
same,"Plant response rating, Corn",corn; [4],0
same,Corn plant response rating,corn; [5],0
same,"Plant response rating, Corn",corn; [6],0
O=C1NCC(c2ccc(F)c(F)c2)C1C(=O)Nc1cccnc1C(F)(F)F (racemic) [Compound 98],"Plant response rating, Barnyardgrass",barnyardgrass [1]; 1000 g ai/ha,0
same,"Plant response rating, Morningglory",morningglory; [8],0
same,"Plant response rating, Morningglory",morningglory; [9],0
same,"Plant response rating, Pigweed",pigweed; [8],0
same,"Plant response rating, Pigweed",pigweed; [9],0
same,"Plant response rating, Barnyardgrass",barnyardgrass [2]; [8],50
same,"Plant response rating, Barnyardgrass",barnyardgrass [2]; [9],50
same,"Plant response rating, Ducksalad",ducksalad; 1000 g ai/ha,90
same,"Plant response rating, Crabgrass, Large","crabgrass, large; [8]",90
same,"Plant response rating, Crabgrass, Large","crabgrass, large; [9]",90
same,"Plant response rating, Rice",rice; 1000 g ai/ha,0
same,"Plant response rating, Foxtail, Giant",giant foxtail; [8],60
same,"Plant response rating, Foxtail, Giant",giant foxtail; [9],90
same,"Plant response rating, Sedge, Umbrella","sedge, umbrella; 1000 g ai/ha",0
same,"Plant response rating, Velvetleaf",velvetleaf; [8],10
same,"Plant response rating, Velvetleaf",velvetleaf; [9],0
same,"Plant response rating, Wheat",wheat; [8],20
same,"Plant response rating, Wheat",wheat; [9],0
same,"Plant response rating, Corn",corn; [8],0
same,"Plant response rating, Corn",corn; [9],20
Cc1cccc(C2CN(C(=O)OC(C)(C)C)C(=O)C2C(=O)Nc2ccccc2F)c1 (stereo not shown) [Compound 37],"Plant response rating, Barnyardgrass",barnyardgrass [1]; 250 g ai/ha,0
same,"Plant response rating, Morningglory",morningglory; [3],0
same,"Plant response rating, Morningglory",morningglory; [4],0
same,Morningglory plant response rating,morningglory; [5],0
same,"Plant response rating, Morningglory",morningglory; [6],0
same,"Plant response rating, Pigweed",pigweed; [3],0
same,"Plant response rating, Pigweed",pigweed; [4],0
same,Pigweed plant response rating,pigweed; [5],0
same,"Plant response rating, Pigweed",pigweed; [6],0
same,"Plant response rating, Barnyardgrass",barnyardgrass [2]; [3],0
same,"Plant response rating, Barnyardgrass",barnyardgrass [2]; [4],50
same,Barnyardgrass plant response rating,barnyardgrass [2]; [5],0
same,"Plant response rating, Barnyardgrass",barnyardgrass [2]; [7],80
same,"Plant response rating, Ducksalad",ducksalad; 250 g ai/ha,0
same,"Plant response rating, Crabgrass, Large","crabgrass, large; [3]",0
same,"Plant response rating, Crabgrass, Large","crabgrass, large; [4]",20
same,"Crabgrass, Large plant response rating","crabgrass, large; [5]",0
same,"Plant response rating, Crabgrass, Large","crabgrass, large; [6]",80
same,"Plant response rating, Rice",rice; 250 g ai/ha,0
same,"Plant response rating, Foxtail, Giant",giant foxtail; [3],0
same,"Plant response rating, Foxtail, Giant",giant foxtail; [4],20
same,"Foxtail, Giant plant response rating",giant foxtail; [5],0
same,"Plant response rating, Foxtail, Giant",giant foxtail; [6],20
same,"Plant response rating, Sedge, Umbrella","sedge, umbrella; 250 g ai/ha",20
same,"Plant response rating, Velvetleaf",velvetleaf; [3],0
same,"Plant response rating, Velvetleaf",velvetleaf; [4],0
same,Velvetleaf plant response rating,velvetleaf; [5],0
same,"Plant response rating, Velvetleaf",velvetleaf; [6],0
same,"Plant response rating, Wheat",wheat; [3],0
same,"Plant response rating, Wheat",wheat; [4],0
same,Wheat plant response rating,wheat; [5],0
same,"Plant response rating, Wheat",wheat; [6],30
same,"Plant response rating, Corn",corn; [3],0
same,"Plant response rating, Corn",corn; [4],0
same,Corn plant response rating,corn; [5],0
same,"Plant response rating, Corn",corn; [6],0
O=C1NCC(c2ccc(Cl)c(C(F)(F)F)c2)C1C(=O)Nc1ccccc1F (racemic) [Compound 267],"Plant response rating, Barnyardgrass",barnyardgrass [1]; 1000 g ai/ha,20
same,"Plant response rating, Morningglory",morningglory; [10],0
same,"Plant response rating, Morningglory",morningglory; [4],60
same,"Plant response rating, Morningglory",morningglory; [11],0
same,"Plant response rating, Morningglory",morningglory; [12],0
same,"Plant response rating, Pigweed",pigweed; [10],0
same,"Plant response rating, Pigweed",pigweed; [4],60
same,"Plant response rating, Pigweed",pigweed; [11],0
same,"Plant response rating, Pigweed",pigweed; [12],50
same,"Plant response rating, Barnyardgrass",barnyardgrass [2]; [13],70
same,"Plant response rating, Barnyardgrass",barnyardgrass [2]; [4],80
same,"Plant response rating, Barnyardgrass",barnyardgrass [2]; [11],70
same,"Plant response rating, Barnyardgrass",barnyardgrass [2]; [12],80
same,"Plant response rating, Ducksalad",ducksalad; 1000 g ai/ha,100
same,"Plant response rating, Crabgrass, Large","crabgrass, large; [13]",80
same,"Plant response rating, Crabgrass, Large","crabgrass, large; [4]",90
same,"Plant response rating, Crabgrass, Large","crabgrass, large; [11]",90
same,"Plant response rating, Crabgrass, Large","crabgrass, large; [12]",90
same,"Plant response rating, Rice",rice; 1000 g ai/ha,15
same,"Plant response rating, Foxtail, Giant",giant foxtail; [13],70
same,"Plant response rating, Foxtail, Giant",giant foxtail; [4],80
same,"Plant response rating, Foxtail, Giant",giant foxtail; [11],80
same,"Plant response rating, Foxtail, Giant",giant foxtail; [12],90
same,"Plant response rating, Sedge, Umbrella","sedge, umbrella; 1000 g ai/ha",0
same,"Plant response rating, Velvetleaf",velvetleaf; [10],30
same,"Plant response rating, Velvetleaf",velvetleaf; [11],0
same,"Plant response rating, Velvetleaf",velvetleaf; [12],0
same,"Plant response rating, Wheat",wheat; [10],0
same,"Plant response rating, Wheat",wheat; [4],0
same,"Plant response rating, Wheat",wheat; [11],0
same,"Plant response rating, Wheat",wheat; [12],0
same,"Plant response rating, Corn",corn; [13],40
same,"Plant response rating, Corn",corn; [4],70
same,"Plant response rating, Corn",corn; [11],0
same,"Plant response rating, Corn",corn; [12],0
O=C1NCC(c2ccccc2)C1C(=O)Nc1ccc(Br)cc1F (racemic) [Compound 84],"Plant response rating, Barnyardgrass",barnyardgrass [1]; 250 g ai/ha,0
same,"Plant response rating, Morningglory",morningglory; [3],0
same,"Plant response rating, Morningglory",morningglory; [4],0
same,Morningglory plant response rating,morningglory; [5],0
same,"Plant response rating, Morningglory",morningglory; [6],0
same,"Plant response rating, Pigweed",pigweed; [3],0
same,"Plant response rating, Pigweed",pigweed; [4],0
same,Pigweed plant response rating,pigweed; [5],0
same,"Plant response rating, Pigweed",pigweed; [6],0
same,"Plant response rating, Barnyardgrass",barnyardgrass [2]; [3],0
same,"Plant response rating, Barnyardgrass",barnyardgrass [2]; [4],0
same,Barnyardgrass plant response rating,barnyardgrass [2]; [5],0
same,"Plant response rating, Barnyardgrass",barnyardgrass [2]; [7],0
same,"Plant response rating, Ducksalad",ducksalad; 250 g ai/ha,0
same,"Plant response rating, Crabgrass, Large","crabgrass, large; [3]",0
same,"Plant response rating, Crabgrass, Large","crabgrass, large; [4]",20
same,"Crabgrass, Large plant response rating","crabgrass, large; [5]",0
same,"Plant response rating, Crabgrass, Large","crabgrass, large; [6]",50
same,"Plant response rating, Rice",rice; 250 g ai/ha,0
same,"Plant response rating, Foxtail, Giant",giant foxtail; [3],0
same,"Plant response rating, Foxtail, Giant",giant foxtail; [4],0
same,"Foxtail, Giant plant response rating",giant foxtail; [5],0
same,"Plant response rating, Foxtail, Giant",giant foxtail; [6],0
same,"Plant response rating, Sedge, Umbrella","sedge, umbrella; 250 g ai/ha",0
same,"Plant response rating, Velvetleaf",velvetleaf; [3],0
same,"Plant response rating, Velvetleaf",velvetleaf; [4],0
same,Velvetleaf plant response rating,velvetleaf; [5],0
same,"Plant response rating, Velvetleaf",velvetleaf; [6],0
same,"Plant response rating, Wheat",wheat; [3],0
same,"Plant response rating, Wheat",wheat; [4],0
same,Wheat plant response rating,wheat; [5],0
same,"Plant response rating, Wheat",wheat; [6],0
same,"Plant response rating, Corn",corn; [3],0
same,"Plant response rating, Corn",corn; [4],0
same,Corn plant response rating,corn; [5],0
same,"Plant response rating, Corn",corn; [6],0
